Here are results for two compounds from patent publication US4965365A, “Imidazole derivatives and a process for the preparation thereof” (Laboratorios Vinas, S.A., priority 1988, dated 1990).

One experiment concerns ethanol induced ulcers. To be noted: equimolecular doses. On the procedure: (B) Necrotic agent model.
The activity of this compound vs cimetidine at equimolecular doses and a control group administered a vehicle was tested using the necrotic agent model, in this case ethanol, described by A. Robert et al. (Gastroenterology, 77: 433, 1979).

Experiment [1] has as its system histamine induced gastric acid secretion. To be noted: 15 mg/kg, i.p., rat, intragastric pH. Here is the method: (A) histamine induced gastric acid secretion model "in vivo" in the rat.
This activity was measured in Wistar rats of 240±20 g body weight. An endovenous perfusion of a histamine solution stimulated the gastric acid secretion, causing a drop in the intragastric pH. Thereafter, this compound was administered i.p. and the increase in gastric pH caused was evaluated.

For the compound `CNC(=NC#N)NCCSCc1nc[nH]c1C` [Cimetidine, cimetidine], the “% inhibition of ulcers vs the control” value in the experiment on ethanol induced ulcers (ethanol model) was 30.3%. Also, the “mm damaged (lesion index, mm of ulcer)” value in the experiment on ethanol induced ulcers (mean ± standard error of the mean, control 91.4 ± 8.1, a: t test p< 0.05 vs control) is given as 63.7 ± 7.7 mm.
Turning to `CN=C(NC#N)NCCSCc1nc[nH]c1C.[Cl][Zn][Cl]` [Zn(cimetidine)Cl2], the “pH Recovery” value in experiment [1] is listed as 65.5%.
